Values of other authors, collected in patent US12582632B2, “Inhibition of neurological injuries due to infections via administration of Butanetap and analogs thereof” (priority 2021, dated 2026).

Settings: 3 phase 3 clinical studies, failed; cited from earlier work

CN1CC[C@@]2(C)c3cc(OC(=O)Nc4ccccc4)ccc3N(C)[C@@H]12 [Phenserine, (−)-N-phenylcarbamoyl eseroline]
side effects in clinical studies: high cholinomimetic side effects
